≈ marks a conversion by molar mass, not a printed value. Where two headings read alike, the source gives them in different places. Marks after values point to notes of the source that are not given here.
Assays:
[1] = test system: TNF-alpha; experiment: TNF-alpha level in mice fed a high-fat diet; type: in vivo; details: mean ± standard deviation
Method: (§1) The effects of eriocitrin and eriodictyol on anti-inflammatory markers were determined in mice fed a high-fat diet and compared to negative control, untreated mice that were fed either a standard- or high-fat-diet. Eriocitrin and eriodictyol effects were also compared against ibuprofen- and hesperidin-treated, high-fat-diet-fed mice. The effects of these various treatments on the cytokines IL-6, IL-10, MCP-1, and TNF-alpha are shown below.

[2] = test system: IL-6; experiment: IL-6 level in mice fed a high-fat diet; type: in vivo; details: for IL-6: high fat diet mice, mean ± standard deviation
Method: as §1

[3] = test system: IL-10; experiment: IL-10 level in mice fed a high-fat diet; type: in vivo; details: mean ± standard deviation
Method: as §1

[4] = test system: MCP-1; experiment: MCP-1 level in mice fed a high-fat diet; type: in vivo; details: for MCP-1: high fat diet mice, mean ± standard deviation
Method: as §1

[5] = Clinical study of metabolic syndrome symptoms (fasting glucose, insulin, hs-CRP, lipid panel); type: in vivo; details: humans, after 30 days, ≥10 hour fast, versus placebo
Method: A clinical study is performed in which subjects undergo a one-week run-in period during which subject document baseline data. Subjects meeting the inclusion/exclusion criteria are enrolled in the study and sent a glucometer to determine their fasting blood glucose levels. Those meeting the study criteria are enrolled in the study.
The subjects fast for at least 10 hours, and their fasting glucose, fasting insulin, hs-CRP levels, and lipid panels (including LDL, HDL, and triglycerides) are measured. Following these baseline measurements, subjects consume (1) 50 mg-2 g/day eriocitrin; (2) 50 mg-2 g/day eriocitrin, 50-250 mg/day neoeriocitrin, 50-250 mg/day hesperidin; or (3) a placebo. After 30 days, the subjects' glucose, insulin, hs-CRP, and lipid panel measurements are taken after a ≥10 hour fast.

[6] = Total ORACFN (sum over the five reactive species); type: biochemical; design: ORAC-FN: unit not given here; details: for ORAC-FN: Table 5 summary, total ORACFN, unit not given; for Compare quercetin (ORAC-FN): anti-oxidant activity relative to quercetin
Method: This example describes the anti-oxidant activity of the eriodictyol complex described in Table 1. Anti-oxidant activity was measured using an oxygen radical absorbance capacity assay for food and nutrition ([…]). The assay was performed using techniques known in the art, such as those disclosed in Ou, B. et al., J Agric and Food Chem, 2001, 49 (10): 4619-4626; Huang, D. et al., J Agric and Food Chem, 2002, 50 (7): 1815-1821; Ou, B. et al., J Agric and Food Chem, 2002, 50 (10): 2772-2777; Zhang, L. et al., Free Radic. Bio Med, 2007, 43 (suppl. 1): S17; Dubost, N.J. et al., Food Chem, 2007, 105 (2): 727-735; Zhang, L. et al., J Agric and Food Chem, 2009, 57(7): 2661-2667; and U.S. Pat. No. 7,132,296, the contents of all of which are incorporated herein by reference. The activity of the eriodictyol complex against peroxyl radicals, hydroxyl radicals, peroxynitrite, super oxide anion, and singlet oxygen was measured. The total […] was also measured.

[7] = test system: NF-kB; experiment: NF-kB-luciferase assay system in C2C12 cell line; type: cell-based; details: for Compare quercetin (EC50 NF-kB): NF-kB inhibitory activity relative to quercetin
Method: Activity of the complex was measured using a C2C12 cell line with a NF-kB-luciferase assay system (Affymetrix, Santa Clara, Calif.), and compared to a number of flavonoid controls.

[8] = Mus musculus, C2C12, Table 5 summary, unit inferred, read-out: EC50 NF-kB
[9] = Mus musculus, NF-kB inhibition, C2C12 cell line, NF-kB-luciferase, read-out: EC50
[10] = high-fat-diet-fed mice, in words

Row | SMILES | EC50 [7, 8] | EC50 [7, 9] | Compare quercetin (EC50 NF-kB) [7] | TNF-alpha [1] | IL-6 [2] | IL-10 [3] | MCP-1 [4] | ORAC-FN [6] | Compare quercetin (ORAC-FN) [6] | also measured
1 | COc1ccc([C@@H]2CC(=O)c3c(O)cc(O[C@@H]4O[C@H](CO[C@@H]5O[C@@H](C)[C@H](O)[C@@H](O)[C@H]5O)[C@@H](O)[C@H](O)[C@H]4O)cc3O2)cc1O [Hesperidin] | – | – | – | 2.7 ± 0.3 | 5.9 ± 4.6^a | 5.3 ± 2.4 | 27.6 ± 9.0^a | – | – | –
2 | CC(C)Cc1ccc(C(C)C(=O)O)cc1 (stereo not drawn) [Ibuprofen] | – | – | – | 1.2 ± 2.4 | 21.9 ± 18.1^a | 6.0 ± 4.5 | 43.4 ± 31.5^ab | – | – | –
3 | COc1ccc(-c2cc(=O)c3c(O)cc(O[C@@H]4O[C@H](CO[C@@H]5O[C@@H](C)[C@H](O)[C@@H](O)[C@H]5O)[C@@H](O)[C@H](O)[C@H]4O)cc3o2)cc1O [Diosmin] | 349 µg/mL (≈ 573 µM) | 349 µg/mL (≈ 573 µM) | 0.07 | – | – | – | – | 373 | 0.006 | –
4 | COc1ccc([C@@H]2CC(=O)c3c(O)cc(O[C@@H]4O[C@H](CO[C@@H]5O[C@@H](C)[C@H](O)[C@@H](O)[C@H]5O)[C@@H](O)[C@H](O)[C@H]4O)cc3O2)cc1O [Hesperidin 90, Hesperidin] | – | – | 0.09 | – | – | – | – | 6067 | 0.092 | EC50 ([7]; NF-kB inhibition, C2C12 cell line, NF-kB-luciferase): 275.70 µg/mL (≈ 452 µM); EC50 NF-kB ([7]; Table 5 summary, unit not given, in µg/mL): 275.70

Further lines, with some results ahead:

Row | EC50 [7, 8] | EC50 [7, 9] | Compare quercetin (EC50 NF-kB) [7] | SMILES | TNF-alpha [1] | IL-6 [2] | IL-10 [3] | MCP-1 [4] | ORAC-FN [6] | Compare quercetin (ORAC-FN) [6] | also measured
5 | 71.4 µg/mL (≈ 120 µM) | 71.4 µg/mL (≈ 120 µM) | 0.35 | C[C@@H]1O[C@@H](OC[C@H]2O[C@@H](Oc3cc(O)c4c(c3)O[C@H](c3ccc(O)c(O)c3)CC4=O)[C@H](O)[C@@H](O)[C@@H]2O)[C@H](O)[C@H](O)[C@H]1O [Eriocitrin, eriodictyol 7-O-B-rutinoside] | 2.4 ± 0.6 | 3.1 ± 1.6^a | 4.0 ± 2.2 | 19.3 ± 11.1^a | 31355 | 0.475 | HDL levels [5]: increased; LDL levels [5]: reduced; glucose levels [5]: reduced; hs-CRP levels [5]: reduced; insulin levels [5]: reduced; total cholesterol levels [5]: reduced; IL-6 levels in comparison to the negative controls [2, 10]: significantly reduced; MCP-1 levels in comparison to the negative controls [4, 10]: significantly reduced
6 | – | 31.5 µg/mL (≈ 104 µM) | – | O=c1c(O)c(-c2ccc(O)c(O)c2)oc2cc(O)cc(O)c12 [Quercetin•2H2O] | – | – | – | – | – | – | –
7 | 32 µg/mL (≈ 118 µM) | 32 µg/mL (≈ 118 µM) | 0.78 | O=C1C[C@@H](c2ccc(O)cc2)Oc2cc(O)cc(O)c21 [Naringenin] | – | – | – | – | 59454 | 0.901 | –
8 | 381 µg/mL (≈ 656 µM) | 381 µg/mL (≈ 656 µM) | 0.07 | C[C@@H]1O[C@@H](O[C@H]2[C@H](Oc3cc(O)c4c(c3)O[C@H](c3ccc(O)cc3)CC4=O)O[C@H](CO)[C@@H](O)[C@@H]2O)[C@H](O)[C@H](O)[C@H]1O [Naringin] | – | – | – | – | 22389 | 0.339 | –
9 | 54.2 µg/mL (≈ 179 µM) | 54.2 µg/mL (≈ 179 µM) | 0.46 | COc1ccc([C@@H]2CC(=O)c3c(O)cc(O)cc3O2)cc1O [Hesperitin 95, Hesperitin] | – | – | – | – | 77875 | 1.180 | –

From patent US10596185B2, “Flavonoid compositions and uses thereof” (INGREDIENTS BY NATURE, priority 2014, dated 2020)
